Measurements reported in ChEMBL document CHEMBL5154747, “Discovery of new carbonic anhydrase IX inhibitors as anticancer agents by toning the hydrophobic and hydrophilic rims of the active site to encounter the dual-tail approach” (Eur J Med Chem, 2022).

tested on: HL-60(TB); experiment: Anticancer activity against human HL-60(TB) cells assessed as cell growth inhibition at 10 uM incubated for 48 hrs by SRB assay relative to control; type: functional; conditions: read-out: GI

SMILES	inhibition of growth at 10 µM
COc1ccc(/C=N/Nc2nc(Nc3ccccc3)nc(Nc3ccc(S(N)(=O)=O)cc3)n2)cc1	16%

tested on: SK-OV-3; experiment: Anticancer activity against human SK-OV-3 cells assessed as cell growth inhibition at 10 uM incubated for 48 hrs by SRB assay relative to control; type: functional; conditions: read-out: GI

SMILES	inhibition of growth at 10 µM
COc1ccc(/C=N/Nc2nc(Nc3ccccc3)nc(Nc3ccc(S(N)(=O)=O)cc3)n2)cc1	< 10%

tested on: NCI-H522; experiment: Anticancer activity against human NCI-H522 cells assessed as cell growth inhibition at 10 uM incubated for 48 hrs by SRB assay relative to control; type: functional; conditions: read-out: GI

SMILES	inhibition of growth at 10 µM
COc1ccc(/C=N/Nc2nc(Nc3ccccc3)nc(Nc3ccc(S(N)(=O)=O)cc3)n2)cc1	17%

tested on: HCT-15; experiment: Anticancer activity against human HCT-15 cells assessed as cell growth inhibition at 10 uM incubated for 48 hrs by SRB assay relative to control; type: functional; conditions: read-out: GI

SMILES	inhibition of growth at 10 µM
COc1ccc(/C=N/Nc2nc(Nc3ccccc3)nc(Nc3ccc(S(N)(=O)=O)cc3)n2)cc1	31%

tested on: 786-0; experiment: Anticancer activity against human 786-0 cells assessed as cell growth inhibition at 10 uM incubated for 48 hrs by SRB assay relative to control; type: functional; conditions: read-out: GI

SMILES	inhibition of growth at 10 µM
COc1ccc(/C=N/Nc2nc(Nc3ccccc3)nc(Nc3ccc(S(N)(=O)=O)cc3)n2)cc1	26%

tested on: SN12C; experiment: Anticancer activity against human SN12C cells assessed as cell growth inhibition at 10 uM incubated for 48 hrs by SRB assay relative to control; type: functional; conditions: read-out: GI

SMILES	inhibition of growth at 10 µM
COc1ccc(/C=N/Nc2nc(Nc3ccccc3)nc(Nc3ccc(S(N)(=O)=O)cc3)n2)cc1	19%

tested on: Hs-578T; experiment: Anticancer activity against human Hs-578T cells assessed as cell growth inhibition at 10 uM incubated for 48 hrs by SRB assay relative to control; type: functional; conditions: read-out: GI

SMILES	inhibition of growth at 10 µM
COc1ccc(/C=N/Nc2nc(Nc3ccccc3)nc(Nc3ccc(S(N)(=O)=O)cc3)n2)cc1	41%

tested on: LOX IMVI; experiment: Anticancer activity against human LOX IMVI cells assessed as cell growth inhibition at 10 uM incubated for 48 hrs by SRB assay relative to control; type: functional; conditions: read-out: GI

SMILES	inhibition of growth at 10 µM
COc1ccc(/C=N/Nc2nc(Nc3ccccc3)nc(Nc3ccc(S(N)(=O)=O)cc3)n2)cc1	47%

tested on: OVCAR-8; experiment: Anticancer activity against human OVCAR-8 cells assessed as cell growth inhibition at 10 uM incubated for 48 hrs by SRB assay relative to control; type: functional; conditions: read-out: GI

SMILES	inhibition of growth at 10 µM
COc1ccc(/C=N/Nc2nc(Nc3ccccc3)nc(Nc3ccc(S(N)(=O)=O)cc3)n2)cc1	32%

tested on: RPMI-8226; experiment: Anticancer activity against human RPMI-8226 cells assessed as cell growth inhibition at 10 uM incubated for 48 hrs by SRB assay relative to control; type: functional; conditions: read-out: GI

SMILES	inhibition of growth at 10 µM
COc1ccc(/C=N/Nc2nc(Nc3ccccc3)nc(Nc3ccc(S(N)(=O)=O)cc3)n2)cc1	52%

tested on: SR; experiment: Anticancer activity against human SR cells assessed as cell growth inhibition at 10 uM incubated for 48 hrs by SRB assay relative to control; type: functional; conditions: read-out: GI

SMILES	inhibition of growth at 10 µM
COc1ccc(/C=N/Nc2nc(Nc3ccccc3)nc(Nc3ccc(S(N)(=O)=O)cc3)n2)cc1	51%

tested on: SNB-75; experiment: Anticancer activity against human SNB-75 cells assessed as cell growth inhibition at 10 uM incubated for 48 hrs by SRB assay relative to control; type: functional; conditions: read-out: GI

SMILES	inhibition of growth at 10 µM
COc1ccc(/C=N/Nc2nc(Nc3ccccc3)nc(Nc3ccc(S(N)(=O)=O)cc3)n2)cc1	18%

tested on: NCI-H23; experiment: Anticancer activity against human NCI-H23 cells assessed as cell growth inhibition at 10 uM incubated for 48 hrs by SRB assay relative to control; type: functional; conditions: read-out: GI

SMILES	inhibition of growth at 10 µM
COc1ccc(/C=N/Nc2nc(Nc3ccccc3)nc(Nc3ccc(S(N)(=O)=O)cc3)n2)cc1	29%

tested on: UACC-62; experiment: Anticancer activity against human UACC-62 cells assessed as cell growth inhibition at 10 uM incubated for 48 hrs by SRB assay relative to control; type: functional; conditions: read-out: GI

SMILES	inhibition of growth at 10 µM
COc1ccc(/C=N/Nc2nc(Nc3ccccc3)nc(Nc3ccc(S(N)(=O)=O)cc3)n2)cc1	12%

tested on: Malme-3M; experiment: Anticancer activity against human Malme-3M cells assessed as cell growth inhibition at 10 uM incubated for 48 hrs by SRB assay relative to control; type: functional; conditions: read-out: GI

SMILES	inhibition of growth at 10 µM
COc1ccc(/C=N/Nc2nc(Nc3ccccc3)nc(Nc3ccc(S(N)(=O)=O)cc3)n2)cc1	18%

tested on: T47D; experiment: Anticancer activity against human T47D cells assessed as cell growth inhibition at 10 uM incubated for 48 hrs by SRB assay relative to control; type: functional; conditions: read-out: GI

SMILES	inhibition of growth at 10 µM
COc1ccc(/C=N/Nc2nc(Nc3ccccc3)nc(Nc3ccc(S(N)(=O)=O)cc3)n2)cc1	36%

tested on: ACHN; experiment: Anticancer activity against human ACHN cells assessed as cell growth inhibition at 10 uM incubated for 48 hrs by SRB assay relative to control; type: functional; conditions: read-out: GI

SMILES	inhibition of growth at 10 µM
COc1ccc(/C=N/Nc2nc(Nc3ccccc3)nc(Nc3ccc(S(N)(=O)=O)cc3)n2)cc1	24%

tested on: EKVX; experiment: Anticancer activity against human EKVX cells assessed as cell growth inhibition at 10 uM incubated for 48 hrs by SRB assay relative to control; type: functional; conditions: read-out: GI

SMILES	inhibition of growth at 10 µM
COc1ccc(/C=N/Nc2nc(Nc3ccccc3)nc(Nc3ccc(S(N)(=O)=O)cc3)n2)cc1	11%

tested on: SF-539; experiment: Anticancer activity against human SF-539 cells assessed as cell growth inhibition at 10 uM incubated for 48 hrs by SRB assay relative to control; type: functional; conditions: read-out: GI

SMILES	inhibition of growth at 10 µM
COc1ccc(/C=N/Nc2nc(Nc3ccccc3)nc(Nc3ccc(S(N)(=O)=O)cc3)n2)cc1	51%

tested on: K562; experiment: Anticancer activity against human K562 cells assessed as cell growth inhibition at 10 uM incubated for 48 hrs by SRB assay relative to control; type: functional; conditions: read-out: GI

SMILES	inhibition of growth at 10 µM
COc1ccc(/C=N/Nc2nc(Nc3ccccc3)nc(Nc3ccc(S(N)(=O)=O)cc3)n2)cc1	50%
